This passage reports Activity results from ChEMBL document CHEMBL2074400, “Transporter-mediated renal handling of nafamostat mesilate” (J Pharm Sci, 2004).

The target of this data set is ATP-dependent translocase ABCB1 (Homo sapiens, UniProt P08183). The data set can be described thus: TP_TRANSPORTER: transepithelial transport in LLC-GA5-COL150 cells. Format: functional, cell-based. The conditions noted are these: pig.
Chain of ATP-dependent translocase ABCB1 (P08183 whole entry): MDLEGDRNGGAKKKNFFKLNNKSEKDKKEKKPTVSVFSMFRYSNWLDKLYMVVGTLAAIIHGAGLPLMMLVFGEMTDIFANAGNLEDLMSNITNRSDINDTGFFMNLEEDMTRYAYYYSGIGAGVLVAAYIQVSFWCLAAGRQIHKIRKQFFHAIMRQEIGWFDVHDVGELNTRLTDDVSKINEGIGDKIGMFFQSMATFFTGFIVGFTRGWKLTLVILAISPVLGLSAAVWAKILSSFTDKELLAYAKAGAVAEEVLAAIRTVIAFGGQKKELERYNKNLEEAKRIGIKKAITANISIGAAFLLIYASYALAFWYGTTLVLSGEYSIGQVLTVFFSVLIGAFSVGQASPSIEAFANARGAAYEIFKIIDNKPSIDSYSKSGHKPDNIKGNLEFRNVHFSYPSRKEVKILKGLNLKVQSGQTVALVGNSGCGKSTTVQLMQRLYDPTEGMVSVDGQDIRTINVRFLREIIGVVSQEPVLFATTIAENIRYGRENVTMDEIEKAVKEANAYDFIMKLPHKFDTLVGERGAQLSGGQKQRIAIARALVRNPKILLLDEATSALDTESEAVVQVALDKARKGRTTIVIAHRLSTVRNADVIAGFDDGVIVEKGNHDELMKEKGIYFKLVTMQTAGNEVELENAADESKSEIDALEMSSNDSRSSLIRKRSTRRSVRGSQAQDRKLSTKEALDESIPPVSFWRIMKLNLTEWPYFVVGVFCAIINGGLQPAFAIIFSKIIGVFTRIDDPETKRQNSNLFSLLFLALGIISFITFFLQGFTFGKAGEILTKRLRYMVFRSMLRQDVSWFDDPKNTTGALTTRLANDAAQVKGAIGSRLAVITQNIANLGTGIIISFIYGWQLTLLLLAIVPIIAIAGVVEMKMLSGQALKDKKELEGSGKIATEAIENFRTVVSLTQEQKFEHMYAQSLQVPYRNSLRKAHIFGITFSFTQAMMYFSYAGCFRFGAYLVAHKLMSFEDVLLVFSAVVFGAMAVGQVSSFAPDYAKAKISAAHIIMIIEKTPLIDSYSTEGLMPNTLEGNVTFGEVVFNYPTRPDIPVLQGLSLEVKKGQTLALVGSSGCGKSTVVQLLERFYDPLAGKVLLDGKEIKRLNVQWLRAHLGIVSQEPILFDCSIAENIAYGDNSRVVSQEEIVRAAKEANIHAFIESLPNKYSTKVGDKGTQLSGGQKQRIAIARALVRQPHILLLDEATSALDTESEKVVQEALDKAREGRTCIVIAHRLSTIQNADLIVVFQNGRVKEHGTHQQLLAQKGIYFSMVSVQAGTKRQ

Consider `CS(=O)(=O)O.N=C(N)Nc1ccc(C(=O)Oc2ccc3cc(C(=N)N)ccc3c2)cc1`, for which the Activity result was “is not a substrate [-]”.
